Measurements: PMC11016868 (Computational and Structural Biotechnology Journal, 2024)
Values after ≈ are worked out from the molar mass of the structure shown.

Tested on: M. marinum (NTUH-M6885)
Test: Minimum inhibitory concentration, broth microdilution
Assay type: cell-based
Details: Mycobacterium marinum, 7H9 broth, 28 °C

| Compound | MIC |
| --- | --- |
| O=C(O)c1cn(C2CC2)c2cc(N3CCNCC3)c(F)cc2c1=O [ciprofloxacin] | 8 µg/mL (≈ 24.1 µM) |
| CO[C@H]1/C=C/O[C@@]2(C)Oc3c(C)c(O)c4c(O)c(c(/C=N/N5CCN(C)CC5)c(O)c4c3C2=O)NC(=O)/C(C)=C\C=C\[C@H](C)[C@H](O)[C@@H](C)[C@@H](O)[C@@H](C)[C@H](OC(C)=O)[C@@H]1C [rifampicin] | 2 µg/mL (≈ 2.43 µM) |
